Structures are written as SMILES. pIC50: −log10 of the molar value. Values after ≈ are worked out from the molar mass of the structure shown.

Test [1] concerns N. gonorrhoeae ATCC 49226. In words: Liquid broth MIC in Fastidious broth. Particulars: Neisseria gonorrhoeae, ATCC49226, read-out: Minimum Inhibitory Concentration, ATCC 49226.
The next test relates to N. gonorrhoeae WHO M. In words: Liquid broth MIC in Fastidious broth. The note with it: Neisseria gonorrhoeae, read-out: Minimum Inhibitory Concentration, WHO M.
In test [2] the target is T1, PBP1a from Acinetobacter baumannii (ATCC 19606) (Acinetobacter baumannii, UniProt A0ABX6CK30).
T1 sequence (A0ABX6CK30 1-851): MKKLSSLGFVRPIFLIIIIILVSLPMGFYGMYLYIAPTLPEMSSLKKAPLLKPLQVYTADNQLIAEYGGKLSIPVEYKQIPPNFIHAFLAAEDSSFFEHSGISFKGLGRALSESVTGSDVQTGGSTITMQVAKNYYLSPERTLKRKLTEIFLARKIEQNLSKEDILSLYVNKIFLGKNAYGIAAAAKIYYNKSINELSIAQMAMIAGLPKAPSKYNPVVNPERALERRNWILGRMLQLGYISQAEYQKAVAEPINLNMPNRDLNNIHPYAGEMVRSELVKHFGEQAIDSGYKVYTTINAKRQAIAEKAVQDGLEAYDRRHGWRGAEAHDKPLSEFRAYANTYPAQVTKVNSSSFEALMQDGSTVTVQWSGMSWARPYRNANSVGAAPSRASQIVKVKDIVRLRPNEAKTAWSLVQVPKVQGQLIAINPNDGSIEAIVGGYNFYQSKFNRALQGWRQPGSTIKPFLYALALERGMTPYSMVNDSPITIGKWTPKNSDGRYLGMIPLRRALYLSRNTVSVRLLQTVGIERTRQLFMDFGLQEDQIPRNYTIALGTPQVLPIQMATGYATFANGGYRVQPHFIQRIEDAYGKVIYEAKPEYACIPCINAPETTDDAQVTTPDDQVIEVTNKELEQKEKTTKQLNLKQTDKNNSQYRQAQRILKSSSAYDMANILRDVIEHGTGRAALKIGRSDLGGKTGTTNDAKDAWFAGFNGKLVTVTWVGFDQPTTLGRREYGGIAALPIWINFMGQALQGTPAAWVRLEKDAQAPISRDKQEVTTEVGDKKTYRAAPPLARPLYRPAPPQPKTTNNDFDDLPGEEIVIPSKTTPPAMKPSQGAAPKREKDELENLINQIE
As to the kind of experiment: Bocillin-FL fluorescence polarization competition binding, A. baumannii PBP1a. Particulars: fluorescence polarization competition binding assay using Bocillin-FL; read-out: A. baumannii PBP1a Potency. The procedure, abridged:
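Purified PBPs pre-incubated with inhibitor (E. coli PBP3 1.5 μM, 30 min; P. aeruginosa PBP3 0.75 μM, A. baumannii PBP1a 1 μM and PBP3 0.2 μM, 15 min), then Bocillin-FL 0.1 μM (0.05 μM for PBP1a) added; FP read up to 60 min. EC50 = concentration halving bound Bocillin-FL.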
(In fluorescence polarisation assays a small probe gives low polarisation when free and higher when bound to something large.)

The subject of another test is N. gonorrhoeae WHO Q. In words: Liquid broth MIC in Fastidious broth. The note with it: Neisseria gonorrhoeae, read-out: Minimum Inhibitory Concentration, WHO Q.
The next test relates to N. gonorrhoeae WHO Z. As to the kind of experiment: Liquid broth MIC in Fastidious broth. Particulars: Neisseria gonorrhoeae, read-out: Minimum Inhibitory Concentration, WHO Z.

Turning to `Cc1cc(C(=O)NCCCN2CCN(C(=O)N[C@@H](C(=O)N[C@H]3Cc4ccc(F)c(C(=O)O)c4OB3O)c3cc(F)c(O)c(O)c3Cl)C(=O)C2=O)ccn1` [Example 298, (R)-3-((R)-2-(2-chloro-5-fluoro-3,4-dihydroxyphenyl)-2-(4-(3-(2-methylisonicotinamido)propyl)-2,3-dioxopiperazine-1-carboxamido)acetamido)-7-fluoro-2-hydroxy-3,4-dihydro-2H-benzo[e][1,2]oxaborinine-8-carboxylic acid], the MIC is 16 to 32 µg/mL (≈ 21.1 to 42.2 µM) in test [1], 16 to 32 µg/mL (≈ 21.1 to 42.2 µM) in the test on N. gonorrhoeae WHO M, greater than 64 µg/mL with N. gonorrhoeae WHO Q and greater than 64 µg/mL in the test with N. gonorrhoeae WHO Z. Besides, the pIC50 in test [2] is less than 3.60.
For the compound `O=C(NCCCN1CCN(C(=O)N[C@H](C(=O)N[C@H]2Cc3ccc(F)c(C(=O)O)c3OB2O)c2cc(F)c(O)c(O)c2Cl)C(=O)C1=O)c1ccnc(F)c1F` [Example 299, (R)-3-((S)-2-(2-chloro-5-fluoro-3,4-dihydroxyphenyl)-2-(4-(3-(2,3-difluoroisonicotinamido)propyl)-2,3-dioxopiperazine-1-carboxamido)acetamido)-7-fluoro-2-hydroxy-3,4-dihydro-2H-benzo[e][1,2]oxaborinine-8-carboxylic acid], the MIC (in test [1]; in the test with N. gonorrhoeae WHO M; in the test on N. gonorrhoeae WHO Q; with N. gonorrhoeae WHO Z) was greater than 64 µg/mL in each case. Besides, the pIC50 in test [2] was less than 3.60.
Turning to `O=C(NCCCN1CCN(C(=O)N[C@@H](C(=O)N[C@H]2Cc3ccc(F)c(C(=O)O)c3OB2O)c2cc(F)c(O)c(O)c2Cl)C(=O)C1=O)c1ccnc(F)c1F` [Example 300, (R)-3-((R)-2-(2-chloro-5-fluoro-3,4-dihydroxyphenyl)-2-(4-(3-(2,3-difluoroisonicotinamido)propyl)-2,3-dioxopiperazine-1-carboxamido)acetamido)-7-fluoro-2-hydroxy-3,4-dihydro-2H-benzo[e][1,2]oxaborinine-8-carboxylic acid], the MIC in test [1] is 16 to 32 µg/mL (≈ 20.5 to 41 µM); in the test on N. gonorrhoeae WHO M it was 16 to 32 µg/mL (≈ 20.5 to 41 µM); in the test with N. gonorrhoeae WHO Q it was greater than 64 µg/mL; in the test on N. gonorrhoeae WHO Z, greater than 64 µg/mL. Moreover, the pIC50 in test [2] was less than 3.60.
Regarding `Cc1cc(C(=O)NCCCN2CCN(C(=O)NC(C(=O)N[C@H]3Cc4ccc(F)c(C(=O)O)c4OB3O)c3cc(F)c(O)c(O)c3Cl)C(=O)C2=O)c(F)cn1` (stereo partly drawn) [Example 301, (3R)-3-(2-(2-chloro-5-fluoro-3,4-dihydroxyphenyl)-2-(4-(3-(5-fluoro-2-methylisonicotinamido)propyl)-2,3-dioxopiperazine-1-carboxamido)acetamido)-7-fluoro-2-hydroxy-3,4-dihydro-2H-benzo[e][1,2]oxaborinine-8-carboxylic acid], the MIC in test [1] is 16 to 32 µg/mL (≈ 20.6 to 41.2 µM); with N. gonorrhoeae WHO M it was 16 to 32 µg/mL (≈ 20.6 to 41.2 µM); in the test on N. gonorrhoeae WHO Q it was greater than 64 µg/mL; in the test with N. gonorrhoeae WHO Z it was greater than 64 µg/mL. Moreover, the pIC50 in test [2] was less than 3.60.
In the case of `O=C(NCCCN1CCN(C(=O)N[C@H](C(=O)N[C@H]2Cc3ccc(F)c(C(=O)O)c3OB2O)c2cc(F)c(O)c(O)c2Cl)C(=O)C1=O)c1cccc(O)c1Cl` [Example 302, (R)-3-((S)-2-(4-(3-(2-chloro-3-hydroxybenzamido)propyl)-2,3-dioxopiperazine-1-carboxamido)-2-(2-chloro-5-fluoro-3,4-dihydroxyphenyl)acetamido)-7-fluoro-2-hydroxy-3,4-dihydro-2H-benzo[e][1,2]oxaborinine-8-carboxylic acid], the MIC (in test [1]; with N. gonorrhoeae WHO M; in the test on N. gonorrhoeae WHO Q; in the test on N. gonorrhoeae WHO Z) was greater than 64 µg/mL each time. For the same compound, the pIC50 in test [2] was less than 3.60.

For the origin of these results see patent US20240270762A1, “PENICILLIN-BINDING PROTEIN INHIBITORS” (priority 2021, published 2024).
